Measurements: the Kinase Knowledgebase extract (Sharma et al. 2016)

target: EGFR (UniProt P00533)
Sequence (P00533 whole entry, looked up): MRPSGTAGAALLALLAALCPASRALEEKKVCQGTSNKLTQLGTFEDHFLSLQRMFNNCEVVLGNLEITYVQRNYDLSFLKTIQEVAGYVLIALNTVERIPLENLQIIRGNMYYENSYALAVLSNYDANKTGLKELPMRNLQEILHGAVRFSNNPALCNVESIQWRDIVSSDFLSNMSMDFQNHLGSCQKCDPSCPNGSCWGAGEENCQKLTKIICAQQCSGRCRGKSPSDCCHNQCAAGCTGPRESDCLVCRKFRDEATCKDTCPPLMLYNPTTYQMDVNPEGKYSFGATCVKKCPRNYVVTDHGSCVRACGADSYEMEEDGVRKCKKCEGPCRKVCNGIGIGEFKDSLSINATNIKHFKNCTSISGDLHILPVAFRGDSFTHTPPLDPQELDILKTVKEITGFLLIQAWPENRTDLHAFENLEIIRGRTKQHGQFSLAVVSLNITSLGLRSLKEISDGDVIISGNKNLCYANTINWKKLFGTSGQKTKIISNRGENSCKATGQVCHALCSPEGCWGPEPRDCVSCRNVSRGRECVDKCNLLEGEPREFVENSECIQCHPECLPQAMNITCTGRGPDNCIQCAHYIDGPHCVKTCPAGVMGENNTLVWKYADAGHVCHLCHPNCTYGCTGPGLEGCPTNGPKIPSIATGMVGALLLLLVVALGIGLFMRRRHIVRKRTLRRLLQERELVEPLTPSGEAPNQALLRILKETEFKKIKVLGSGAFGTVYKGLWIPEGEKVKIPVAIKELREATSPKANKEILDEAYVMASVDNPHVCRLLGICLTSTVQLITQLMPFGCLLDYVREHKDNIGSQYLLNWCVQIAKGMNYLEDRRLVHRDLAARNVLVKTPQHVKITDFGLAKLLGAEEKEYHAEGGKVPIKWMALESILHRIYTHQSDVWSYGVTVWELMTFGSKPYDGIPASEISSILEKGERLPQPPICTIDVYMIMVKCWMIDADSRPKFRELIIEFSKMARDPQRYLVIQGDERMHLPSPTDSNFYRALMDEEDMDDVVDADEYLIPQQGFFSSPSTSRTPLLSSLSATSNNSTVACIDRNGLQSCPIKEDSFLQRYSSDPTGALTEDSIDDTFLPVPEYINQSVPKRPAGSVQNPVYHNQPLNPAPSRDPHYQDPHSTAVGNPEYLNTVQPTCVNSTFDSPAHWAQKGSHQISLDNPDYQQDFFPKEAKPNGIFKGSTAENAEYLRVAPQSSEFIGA

SMILES | IC50 [nM]
COCCN1CCC(Nc2ccc3c(c2)/C(=C(\c2ccc(F)c(Cl)c2)c2ncc[nH]2)C(=O)N3)CC1 | > 5000
COCCN1CCC(Nc2ccc3c(c2)/C(=C(\c2cccc(F)c2)c2ncn[nH]2)C(=O)N3)CC1 | > 5000
COCCN1CCC(Nc2ccc3c(c2)/C(=C(\c2ccc(F)cc2)c2nc4ccccc4[nH]2)C(=O)N3)CC1 | 500 to 5000
COCCN1CCC(Nc2ccc3c(c2)/C(=C(\c2cccc(OC)c2)c2nc4ccccc4[nH]2)C(=O)N3)CC1 | 500 to 5000
O=C1Nc2ccc(NC3CCN(CCN4CCCC4)CC3)cc2/C1=C(\c1cccc(F)c1)c1ncc[nH]1 | > 5000
CCN1CCC(Nc2ccc3c(c2)/C(=C(\c2cccc(C#N)c2)c2nc4ccccc4[nH]2)C(=O)N3)CC1 | 500 to 5000
CCN1CCC(Nc2ccc3c(c2)/C(=C(\c2cccc([N+](=O)[O-])c2)c2nc4ccccc4[nH]2)C(=O)N3)CC1 | 500 to 5000
CCN1CCC(Nc2ccc3c(c2)/C(=C(\c2ccc(F)cc2)c2nc4ccccc4[nH]2)C(=O)N3)CC1 | 500 to 5000
COc1ccc2[nH]c(/C(=C3\C(=O)Nc4ccc(NC5CC(C)(C)NC(C)(C)C5)cc43)c3ccccc3)nc2c1 | 500 to 5000
CN(C)CCN1CCC(Nc2ccc3c(c2)/C(=C(\c2ccccc2)c2nc4ccccc4[nH]2)C(=O)N3)CC1 | 500 to 5000

Now from value to compound:

IC50 [nM] | SMILES
50 to 500 | COCCN1CCC(Nc2ccc3c(c2)/C(=C(\c2ccc(C)c(F)c2)c2ncc[nH]2)C(=O)N3)CC1
50 to 500 | CCCc1ccc(/C(=C2/C(=O)Nc3ccc(NC4CCN(CC)CC4)cc32)c2ncc[nH]2)cc1
50 to 500 | CCN1CCC(Nc2ccc3c(c2)/C(=C(/c2ncc[nH]2)c2cccc(F)c2F)C(=O)N3)CC1
500 to 5000 | CCN1CCC(Nc2ccc3c(c2)/C(=C(\c2cccc(C(F)(F)F)c2)c2ncc[nH]2)C(=O)N3)CC1
50 to 500 | CCN1CCC(Nc2ccc3c(c2)/C(=C(\c2cccc(Cl)c2)c2ncc[nH]2)C(=O)N3)CC1
50 to 500 | CCN1CCC(Nc2ccc3c(c2)/C(=C(\c2ccc(C)cc2)c2nc(C)c[nH]2)C(=O)N3)CC1
500 to 5000 | O=C1Nc2ccc(NC3CC4CCC(C3)N4)cc2/C1=C(\c1ccccc1)c1nc2ccccc2[nH]1 (configuration not stated)
50 to 500 | COCCN1CCC(Nc2ccc3c(c2)/C(=C(\c2ccccc2)c2nc4ccccc4[nH]2)C(=O)N3)CC1
50 to 500 | CCCc1ccc(/C(=C2/C(=O)Nc3ccc(NC4CCN(CCOC)CC4)cc32)c2ncc[nH]2)cc1
50 to 500 | COCCN1CCC(Nc2ccc3c(c2)/C(=C(\c2ccc(C)cc2)c2ncc[nH]2)C(=O)N3)CC1
50 to 500 | CCN1CCC(Nc2ccc3c(c2)/C(=C(\c2ccc(C(F)(F)F)cc2)c2nc(C)c[nH]2)C(=O)N3)CC1
50 to 500 | CCN1CCC(Nc2ccc3c(c2)/C(=C(/c2ncc[nH]2)c2ccc(F)cc2F)C(=O)N3)CC1
